Measured values: patent US20250002455A1, “NEW N-PHENYLPYRROLAMIDE INHIBITORS OF DNA GYRASE AND TOPOISOMERASE IV WITH ANTIBACTERIAL ACTIVITY” (priority 2020, published 2025)
In brackets after ≈: the same amount, converted by molar mass. Read-outs that look alike come from different tables or passages of the source.

How the values were obtained:
[1] = tested on: E. coli ATCC 25922; assay: Microbroth dilution MIC (CLSI); format: cell-based; conditions: Escherichia coli, ATCC25922; E. coli ATCC 25922; read-out: MIC
Procedure: (§1) The chemical entities described in the present invention were assessed for their antimicrobial activity using a microbroth dilution assay as recommended by the CLSI (Methods for Dilution Antimicrobial Susceptibility Tests for Bacteria That Grow Aerobically, and Methods for Antimicrobial Susceptibility Testing of Anaerobic Bacteria, Clinical and Laboratory Standards Institute, Document M07-A8, and M11-A8, Wayne, PA 19087, USA, 2012.). Compounds were dissolved by using 100% DMSO. Serial two-fold dilutions of each compound were made by using 100% DMSO as the diluent.
(§2) A library of Gram-negative and Gram-positive microbes and their drug- and multidrug-resistant variants were employed as test organisms. The MIC (minimum inhibitory concentration) was determined as the lowest concentration of an individual drug that lead to no visible growth.

[2] = tested on: K. pneumoniae ATCC 10031; assay: Microbroth dilution MIC (CLSI); format: cell-based; conditions: Klebsiella pneumoniae, ATCC10031; K. pneumoniae ATCC 10031; read-out: MIC
Procedure: as §1, §2

[3] = tested on: A. baumannii ATCC 17978; assay: Microbroth dilution MIC (CLSI); format: cell-based; conditions: Acinetobacter baumannii, ATCC17978; A. baumannii ATCC 17978; read-out: MIC
Procedure: as §1, §2

[4] = tested on: E. faecalis ATCC 29212; assay: Microbroth dilution MIC (CLSI); format: cell-based; conditions: Enterococcus faecalis, ATCC29212; E. faecalis ATCC 29212; read-out: MIC
Procedure: as §1, §2

[5] = tested on: S. aureus ATCC 43300 (MRSA); assay: Microbroth dilution MIC (CLSI); format: cell-based; conditions: Staphylococcus aureus
Procedure: as §1, §2

[6] = tested on: S. aureus ATCC 700699 (VISA); assay: Microbroth dilution MIC (CLSI); format: cell-based; conditions: Staphylococcus aureus
Procedure: as §1, §2

[7] = tested on: P. aeruginosa ATCC 27853; assay: Microbroth dilution MIC (CLSI); format: cell-based; conditions: Pseudomonas aeruginosa, ATCC27853; P. aeruginosa ATCC 27853; read-out: MIC
Procedure: as §1, §2

[8] = tested on: E. spp. cloacae ATCC 13047; assay: Microbroth dilution MIC (CLSI); format: cell-based; conditions: Enterobacter cloacae, ATCC13047; E. spp. cloacae ATCC 13047; read-out: MIC
Procedure: as §1, §2

[9] = tested on: S. aureus ATCC 29213; assay: Microbroth dilution MIC (CLSI); format: cell-based; conditions: Staphylococcus aureus, ATCC29213; S. aureus ATCC 29213; read-out: MIC
Procedure: as §1, §2

[10] = tested on: E. faecium ATCC 700221; assay: Microbroth dilution MIC (CLSI); format: cell-based; conditions: Enterococcus faecium, ATCC700221
Procedure: as §1, §2

[11] = biological target: T1, E. coli DNA gyrase (Escherichia coli, UniProt P0AES6); assay: biochemical; conditions: E. coli DNA gyrase; read-out: IC50
T1 construct: purchased Inspiralis
Procedure: Inhibitory activities for compounds of the present invention were determined on E. coli and S. aureus DNA gyrase and topoisomerase IV in an assay from Inspiralis on streptavidin-coated 96-well microtiter plates from Thermo scientific Pierce. […] After washing off the unbound oligonucleotide, the enzyme test was performed. […] Reaction solutions were incubated at 37° C. for 30 min. After that, the TF buffer (50 mM NaOAc with pH 5.0, 50 mM NaCl and 50 mM MgCl2) was added to terminate the enzymatic reaction. After additional incubation for 30 min at rt, during which biotin-oligonucleotide-plasmid triplex was formed, the unbound plasmid was washed off using TF buffer and SybrGOLD in T10 buffer (10 mM Tris HCl with pH 8.0 and 1 mM EDTA) was added. […] GraphPad Prism 6.0 software was used to calculate the IC50 values. The result is given as the average value of three independent measurements. […] Chemoth.

[12] = biological target: T2, E. coli topoisomerase IV (Escherichia coli, UniProt P20083); assay: biochemical; conditions: E. coli topo IV, read-out: RA (residual activity of the enzyme); for remaining activity at 1 µM: 1 μM compound; for remaining activity at 10 µM: 10 μM compound
T2 construct: purchased Inspiralis
T2 sequence (P0AFI2 whole entry): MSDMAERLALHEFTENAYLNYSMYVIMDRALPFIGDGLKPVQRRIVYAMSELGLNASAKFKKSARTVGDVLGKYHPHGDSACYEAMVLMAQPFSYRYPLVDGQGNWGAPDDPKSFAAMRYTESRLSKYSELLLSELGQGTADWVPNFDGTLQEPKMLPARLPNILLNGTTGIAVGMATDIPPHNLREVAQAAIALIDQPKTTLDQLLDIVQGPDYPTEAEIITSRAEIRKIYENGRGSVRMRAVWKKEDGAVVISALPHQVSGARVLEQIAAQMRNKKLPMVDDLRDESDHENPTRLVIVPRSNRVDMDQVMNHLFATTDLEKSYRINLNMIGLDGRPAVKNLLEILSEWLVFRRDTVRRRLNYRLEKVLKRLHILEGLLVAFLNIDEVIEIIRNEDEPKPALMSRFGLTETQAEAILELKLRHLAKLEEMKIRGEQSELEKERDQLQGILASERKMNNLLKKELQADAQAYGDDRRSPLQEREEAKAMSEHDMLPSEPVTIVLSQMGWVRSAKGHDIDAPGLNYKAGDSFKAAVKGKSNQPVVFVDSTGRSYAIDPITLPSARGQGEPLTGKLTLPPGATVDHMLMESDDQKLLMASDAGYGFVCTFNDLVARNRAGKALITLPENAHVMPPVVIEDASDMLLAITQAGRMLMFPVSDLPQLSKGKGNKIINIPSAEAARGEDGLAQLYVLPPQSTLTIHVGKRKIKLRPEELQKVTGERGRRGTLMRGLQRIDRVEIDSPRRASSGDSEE
T2 sequence (P20083 whole entry): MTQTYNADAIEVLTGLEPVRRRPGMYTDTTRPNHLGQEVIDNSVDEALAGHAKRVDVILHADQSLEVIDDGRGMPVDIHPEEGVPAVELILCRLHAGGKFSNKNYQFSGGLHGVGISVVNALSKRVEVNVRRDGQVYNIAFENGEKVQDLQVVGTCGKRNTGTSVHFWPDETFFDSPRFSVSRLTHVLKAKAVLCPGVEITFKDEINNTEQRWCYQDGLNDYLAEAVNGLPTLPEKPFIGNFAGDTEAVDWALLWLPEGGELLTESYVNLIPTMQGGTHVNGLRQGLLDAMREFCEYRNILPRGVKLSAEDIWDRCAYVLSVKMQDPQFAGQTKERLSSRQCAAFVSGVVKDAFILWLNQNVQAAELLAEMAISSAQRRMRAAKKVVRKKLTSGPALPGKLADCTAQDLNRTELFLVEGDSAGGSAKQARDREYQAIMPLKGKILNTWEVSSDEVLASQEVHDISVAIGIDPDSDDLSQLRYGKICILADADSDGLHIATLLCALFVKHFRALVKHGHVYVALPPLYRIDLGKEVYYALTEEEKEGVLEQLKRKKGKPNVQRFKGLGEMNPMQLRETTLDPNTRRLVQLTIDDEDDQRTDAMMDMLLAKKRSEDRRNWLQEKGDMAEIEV
Procedure: Inhibitory activities for compounds of the present invention were determined on E. coli and S. aureus DNA gyrase and topoisomerase IV in an assay from Inspiralis on streptavidin-coated 96-well microtiter plates from Thermo scientific Pierce. […] After washing off the unbound oligonucleotide, the enzyme test was performed. […] Reaction solutions were incubated at 37° C. for 30 min. After that, the TF buffer (50 mM NaOAc with pH 5.0, 50 mM NaCl and 50 mM MgCl2) was added to terminate the enzymatic reaction. After additional incubation for 30 min at rt, during which biotin-oligonucleotide-plasmid triplex was formed, the unbound plasmid was washed off using TF buffer and SybrGOLD in T10 buffer (10 mM Tris HCl with pH 8.0 and 1 mM EDTA) was added. […] Initial screening was done at 100 or 10 nM concentration of inhibitors against E. coli DNA gyrase or 1 μM or 100 nM concentration against S. aureus DNA gyrase and E. coli and S. aureus topo IV. […] GraphPad Prism 6.0 software was used to calculate the IC50 values. The result is given as the average value of three independent measurements. […] Chemoth.

[13] = S. aureus ATCC 43300 (MRSA), read-out: MIC
[14] = S. aureus ATCC 700699 (VISA), read-out: MIC
[15] = E. faecium ATCC 700221, read-out: MIC

SMILES | MIC [1] | MIC [2] | MIC [3] | MIC [4] | MIC [5, 13] | MIC [6, 14] | MIC [7] | MIC [8] | MIC [9] | MIC [10, 15] | IC50 [11] | remaining activity at 1 µM [12] | remaining activity at 10 µM [12] | MIC [5] | MIC [6] | MIC [10]
Cc1[nH]c(C(=O)Nc2ccc(C(=O)O)cc2N2CCN(c3ccccc3)CC2)c(Cl)c1Cl [Example 16, 4-(3,4-Dichloro-5-methyl-1H-pyrrole-2-carboxamido)-3-(4-phenylpiperazin-1-yl)benzoic acid] | > 64 µg/mL | > 64 µg/mL | > 64 µg/mL | > 64 µg/mL | > 64 µg/mL | > 64 µg/mL | > 64 µg/mL | > 64 µg/mL | > 64 µg/mL | > 64 µg/mL | 199 nM |  |  |  |  | 
Cc1[nH]c(C(=O)Nc2ccc(-c3n[nH]c(=O)o3)cc2N2CCNCC2)c(Cl)c1Cl.Cl [Example 41, 4-(2-(3,4-Dichloro-5-methyl-1H-pyrrole-2-carboxamido)-5-(5-oxo-4,5-dihydro-1,3,4-oxadiazol-2-yl)phenyl)piperazin-1-ium chloride] | ≥ 64 µg/mL | 0.25 µg/mL | ≥ 64 µg/mL | 0.5 µg/mL | 4 µg/mL |  | ≥ 64 µg/mL | ≥ 64 µg/mL | 2 µg/mL |  | 17.9 nM | 71% | 48% |  |  | 
Cc1[nH]c(C(=O)Nc2ccc(-c3n[nH]c(=O)o3)cc2OC2CCNC2)c(Cl)c1Cl.Cl (stereo not drawn) [Example 26, 3-(2-(3,4-Dichloro-5-methyl-1H-pyrrole-2-carboxamido)-5-(5-oxo-4,5-dihydro-1,3,4-oxadiazol-2-yl)phenoxy)pyrrolidin-1-ium chloride] | ≥ 32 µg/mL | ≥ 32 µg/mL | ≥ 32 µg/mL | ≥ 32 µg/mL | ≥ 32 µg/mL | ≥ 32 µg/mL | ≥ 32 µg/mL | ≥ 32 µg/mL | ≥ 32 µg/mL | ≥ 32 µg/mL | 3.54 nM |  |  |  |  | 
Cc1[nH]c(C(=O)Nc2ccc(-c3n[nH]c(=O)o3)cc2OC2CCNCC2)c(Cl)c1Cl.Cl [Example 27, 4-(2-(3,4-Dichloro-5-methyl-1H-pyrrole-2-carboxamido)-5-(5-oxo-4,5-dihydro-1,3,4-oxadiazol-2-yl)phenoxy)piperidin-1-ium chloride] | ≥ 32 µg/mL | 0.125 µg/mL | ≥ 32 µg/mL | > 64 µg/mL | 8 µg/mL | ≥ 64 µg/mL | ≥ 32 µg/mL | ≥ 32 µg/mL | 16 µg/mL | 8 µg/mL | 2.26 nM |  |  |  |  | 
Cc1[nH]c(C(=O)Nc2ccc(-c3n[nH]c(=O)o3)cc2OCc2cccs2)c(Cl)c1Cl [Example 33, 3,4-Dichloro-5-methyl-N-(4-(5-oxo-4,5-dihydro-1,3,4-oxadiazol-2-yl)-2-(thiophen-2-ylmethoxy)phenyl)-1H-pyrrole-2-carboxamide] |  |  |  |  |  |  |  |  |  |  | 3740 nM |  |  |  |  | 
Cc1[nH]c(C(=O)Nc2ccc(-c3n[nH]c(=O)o3)cc2N2CCOCC2)c(Cl)c1Cl [Example 42, 3,4-Dichloro-5-methyl-N-(2-morpholino-4-(5-oxo-4,5-dihydro-1,3,4-oxadiazol-2-yl)phenyl)-1H-pyrrole-2-carboxamide] | ≥ 64 µg/mL | ≥ 64 µg/mL | ≥ 64 µg/mL | 0.125 µg/mL (≈ 0.285 µM) | 0.25 µg/mL (≈ 0.57 µM) |  | ≥ 64 µg/mL | ≥ 64 µg/mL | 0.25 µg/mL (≈ 0.57 µM) |  | 82.2 nM | 66% | 54% |  |  | 
Cc1[nH]c(C(=O)Nc2ccc(-c3noc(=O)[nH]3)cc2N2CCNCC2)c(Cl)c1Cl [Example 5, 4-(2-(3,4-Dichloro-5-methyl-1H-pyrrole-2-carboxamido)-5-(5-oxo-4,5-dihydro-1,2,4-oxadiazol-3-yl)phenyl)piperazin-1-ium chloride] | > 64 µg/mL | > 64 µg/mL | > 64 µg/mL | > 64 µg/mL |  |  | > 64 µg/mL | > 64 µg/mL | > 64 µg/mL |  | 6.07 nM |  |  | > 64 µg/mL | > 64 µg/mL | > 64 µg/mL
Cc1[nH]c(C(=O)Nc2ccc(-c3noc(=O)[nH]3)cc2N2CCN(c3ccccc3)CC2)c(Cl)c1Cl [Example 7, 3,4-Dichloro-5-methyl-N-(4-(5-oxo-4,5-dihydro-1,2,4-oxadiazol-3-yl)-2-(4-phenylpiperazin-1-yl)phenyl)-1H-pyrrole-2-carboxamide] | > 64 µg/mL | > 64 µg/mL | > 64 µg/mL | 0.125 µg/mL (≈ 0.243 µM) | 0.0625 µg/mL (≈ 0.122 µM) | 2 µg/mL (≈ 3.9 µM) | > 64 µg/mL | > 64 µg/mL | 4 µg/mL (≈ 7.79 µM) | 4 µg/mL (≈ 7.79 µM) | 109 nM |  |  |  |  | 
Cc1[nH]c(C(=O)Nc2ccc(-n3nn[nH]c3=O)cc2N2CCN(c3ccccc3)CC2)c(Cl)c1Cl [Example 24, 3,4-Dichloro-5-methyl-N-(4-(5-oxo-4,5-dihydro-1H-tetrazol-1-yl)-2-(4-phenylpiperazin-1-yl)phenyl)-1H-pyrrole-2-carboxamide] | ≥ 32 µg/mL | ≥ 32 µg/mL | ≥ 32 µg/mL | 0.5 µg/mL (≈ 0.974 µM) | ≥ 32 µg/mL | 0.5 µg/mL (≈ 0.974 µM) | ≥ 32 µg/mL | ≥ 32 µg/mL | ≥ 32 µg/mL | 0.5 µg/mL (≈ 0.974 µM) | 7.8 nM |  |  |  |  | 
Cc1[nH]c(C(=O)Nc2ccc(-c3n[nH]c(=O)o3)cc2OCc2ccncc2)c(Cl)c1Cl [Example 30, 3,4-Dichloro-5-methyl-N-(4-(5-oxo-4,5-dihydro-1,3,4-oxadiazol-2-yl)-2-(pyridin-4-ylmethoxy)phenyl)-1H-pyrrole-2-carboxamide] |  |  |  |  |  |  |  |  |  |  | 42.2 nM |  |  |  |  | 
Cc1[nH]c(C(=O)Nc2ccc(C(=O)NS(C)(=O)=O)cc2N2CCOCC2)c(Cl)c1Cl [Example 45, 3,4-Dichloro-5-methyl-N-(4-((methylsulfonyl)carbamoyl)-2-morpholinophenyl)-1H-pyrrole-2-carboxamide] |  |  |  |  |  |  |  |  |  |  | 243 nM |  |  |  |  | 
Cc1[nH]c(C(=O)Nc2ccc(-c3n[nH]c(=O)o3)cc2N2CCOC(C)C2)c(Cl)c1Cl (stereo not drawn) [Example 43, 3,4-Dichloro-5-methyl-N-(2-(2-methylmorpholino)-4-(5-oxo-4,5-dihydro-1,3,4-oxadiazol-2-yl)phenyl)-1H-pyrrole-2-carboxamide] | ≥ 64 µg/mL | ≥ 64 µg/mL | ≥ 64 µg/mL | 1 µg/mL (≈ 2.21 µM) | ≥ 64 µg/mL |  | ≥ 64 µg/mL | ≥ 64 µg/mL | ≥ 64 µg/mL |  | 53.5 nM | 103% | 102% |  |  | 
Cc1[nH]c(C(=O)Nc2ccc(-c3n[nH]c(=O)o3)cc2N2CC(C)OC(C)C2)c(Cl)c1Cl (stereo not drawn) [Example 44, 3,4-dichloro-N-(2-(2,6-dimethylmorpholino)-4-(5-oxo-4,5-dihydro-1,3,4-oxadiazol-2-yl)phenyl)-5-methyl-1H-pyrrole-2-carboxamide] |  |  |  |  |  |  |  |  |  |  | 109 nM | 105% | 105% |  |  | 
